Active and inactive are the calls of the source. No cut-off for these calls is given here.

One test deals with Aspergillus niger. Briefly: Antifungal activity against Aspergillus niger by poison plate assay method. The format is functional, organism-based.
Another test concerns Penicillium chrysogenum. Briefly: Antifungal activity against Penicillium chrysogenum by poison plate assay method. The format is functional, organism-based.
The test system of another test is Staphylococcus aureus. Briefly: Antibacterial activity against Staphylococcus aureus by agar cup-plate assay method. The format is functional.
Another test deals with Escherichia coli. Nature of the test: Antibacterial activity against Escherichia coli by agar cup-plate assay method. In kind it is functional.
In test [1] the test system is Radical scavenging activity. Nature of the test: Antioxidant activity assessed as DPPH radical scavenging activity at 500 ug/ml. In kind it is functional. Background: Loss of DPPH colour is used to gauge radical scavenging.
In test [2] the test system is Radical scavenging activity. Nature of the test: Antioxidant activity assessed as DPPH radical scavenging activity at 1500 ug/ml. The format is functional.
In test [3] the test system is Radical scavenging activity. Briefly: Antioxidant activity assessed as DPPH radical scavenging activity at 1000 ug/ml. The format is functional.
The subject of test [4] is Radical scavenging activity. Briefly: Antioxidant activity assessed as DPPH radical scavenging activity at 2500 ug/ml. In kind it is functional.
Test [5] has as its system Radical scavenging activity. Nature of the test: Antioxidant activity assessed as DPPH radical scavenging activity at 20 ug/ml. In kind it is functional.
The test system of test [6] is Radical scavenging activity. Briefly: Antioxidant activity assessed as DPPH radical scavenging activity at 30 ug/ml. The format is functional.
Test [7] relates to Radical scavenging activity. Nature of the test: Antioxidant activity assessed as DPPH radical scavenging activity at 50 ug/ml. In kind it is functional.
Test [8] relates to Radical scavenging activity. Nature of the test: Antioxidant activity assessed as DPPH radical scavenging activity at 40 ug/ml. The format is functional.

For the molecule `Fc1ccc(/C=C/c2ccc(Cl)cc2)cc1`, the “inhibition zone (IZ)” value in the test on Aspergillus niger and with Escherichia coli was “inactive” in each case. In addition, the “inhibition zone (IZ)” value in the test with Penicillium chrysogenum was “Active”. Further, the “inhibition zone (IZ)” value with Staphylococcus aureus is 20 mm. The Activity stood at 37.4% in [1], 41.6% in test [2], 40.8% in test [3] and 45.5% in test [4].
As to `Fc1ccc(/C=C/c2cccc(F)c2)cc1`, the “inhibition zone (IZ)” value in the test with Aspergillus niger and in the test with Escherichia coli was “inactive” in each case. Also, the “inhibition zone (IZ)” value in the test on Penicillium chrysogenum is “Active”. In the test on Staphylococcus aureus, the “inhibition zone (IZ)” value is on record as 28 mm. Besides, the Activity in test [1] worked out at 40.5%; in test [2] it was 47.1%; in [3], 42.1%; in test [4], 49.5%.
Take `Fc1ccc(/C=C/c2ccc(F)cc2F)cc1`: the “inhibition zone (IZ)” value in the test with Aspergillus niger, with Penicillium chrysogenum and in the test on Escherichia coli was “inactive” throughout. Moreover, the “inhibition zone (IZ)” value in the test on Staphylococcus aureus turned out to be 30 mm. In addition, the Activity is 45.3% in [1], 50.3% in test [2], 48% in test [3] and 52.5% in test [4].
As to `Fc1ccc(/C=C/c2ccc(Cl)cc2Cl)cc1`, the “inhibition zone (IZ)” value in the test on Aspergillus niger and in the test on Escherichia coli was “inactive” in each case. Moreover, the “inhibition zone (IZ)” value in the test on Penicillium chrysogenum is “Active”. Also, in the test with Staphylococcus aureus, the “inhibition zone (IZ)” value was found to be 18 mm. For the same molecule, the Activity amounted to 35.2% in [1], 37.8% in [2], 37.1% in [3] and 39.3% in test [4].
Regarding `Cc1ccc(/C=C/c2ccc(Cl)cc2Cl)cc1`, the “inhibition zone (IZ)” value in the test on Aspergillus niger, in the test on Penicillium chrysogenum and in the test on Escherichia coli was “inactive” in each case. The “inhibition zone (IZ)” value in the test on Staphylococcus aureus amounted to 12 mm. Further, the Activity was determined as 34.8% in [1], 37.1% in test [2], 36.4% in test [3] and 39.1% in test [4].
For the molecule `Clc1ccc(/C=C/c2ccc(Cl)c(Cl)c2)c(Cl)c1`, the “inhibition zone (IZ)” value with Aspergillus niger and in the test with Escherichia coli was “inactive” each time. The “inhibition zone (IZ)” value with Penicillium chrysogenum is “Active”. In addition, the “inhibition zone (IZ)” value in the test with Staphylococcus aureus is reported as 28 mm. Also, the Activity was 46.5% in test [1], 54.2% in test [2], 49.1% in test [3] and 58% in test [4].
As to `COC1=CC(=O)C[C@@H](C)[C@]12Oc1c(Cl)c(OC)cc(OC)c1C2=O`, the “inhibition zone (IZ)” value in the test on Aspergillus niger and in the test on Penicillium chrysogenum was “Active” in each case.
In the case of `O=C1O[C@H]([C@@H](O)CO)C(O)=C1O`, the Activity was 80.9% in test [5], 86.7% in [6], 94.7% in test [7] and 92% in [8].
As for `Fc1ccc(/C=C/c2cccc(Cl)c2)cc1`, the “inhibition zone (IZ)” value with Aspergillus niger and with Escherichia coli was “inactive” in each case. For the same molecule, in the test on Penicillium chrysogenum, the “inhibition zone (IZ)” value was “Active”. In addition, the “inhibition zone (IZ)” value in the test with Staphylococcus aureus turned out to be 22 mm. Moreover, the Activity in [1] came out at 33%; in test [2], 37.8%; in test [3] it was 35.6%; in test [4], 39.8%.
With `CC1(C)S[C@@H]2[C@H](NC(=O)Cc3ccccc3)C(=O)N2[C@H]1C(=O)O` [PENICILLIN G], the “inhibition zone (IZ)” value with Staphylococcus aureus was found to be 40 mm; in the test with Escherichia coli, 17 mm.
In the case of `Clc1ccc(/C=C/c2ccc(Cl)cc2Cl)c(Cl)c1`, the “inhibition zone (IZ)” value with Aspergillus niger, in the test with Penicillium chrysogenum and in the test with Escherichia coli was “inactive” in each case. For the same molecule, the “inhibition zone (IZ)” value in the test on Staphylococcus aureus turned out to be 24 mm. The Activity in test [1] was determined as 44.6%; in test [2], 50.2%; in test [3], 48.7%; in test [4] it was 56.4%.
For the molecule `Clc1ccc(/C=C/c2ccc(Cl)cc2Cl)cc1`, the “inhibition zone (IZ)” value in the test with Aspergillus niger, with Penicillium chrysogenum and with Escherichia coli was “inactive” in each case. In addition, the “inhibition zone (IZ)” value with Staphylococcus aureus turned out to be 24 mm. Also, the Activity turned out to be 41.3% in test [1], 45.7% in test [2], 43.5% in [3] and 47.2% in test [4].
As for `Fc1ccc(/C=C/c2ccc(F)c(F)c2)cc1`, the “inhibition zone (IZ)” value in the test with Aspergillus niger, with Penicillium chrysogenum and with Escherichia coli was “inactive” throughout. Moreover, in the test with Staphylococcus aureus, the “inhibition zone (IZ)” value is listed as 36 mm. For the same molecule, the Activity in test [1] came out at 43.9%; in test [2] it was 46.5%; in [3], 44.6%; in [4] it was 48.1%.
`Cc1ccc(/C=C/c2ccc(C)cc2)cc1` [(E)-1,2-DI-P-TOLYLETHENE]: the “inhibition zone (IZ)” value with Aspergillus niger, with Penicillium chrysogenum and in the test with Escherichia coli was “inactive” each time. The “inhibition zone (IZ)” value in the test on Staphylococcus aureus is 20 mm. In addition, the Activity in test [1] was 34.9%; in [2], 37.1%; in test [3], 35.7%; in [4], 38%.
For `Cc1ccc(/C=C/c2ccc(F)cc2)cc1`, the “inhibition zone (IZ)” value with Aspergillus niger, in the test with Penicillium chrysogenum, with Staphylococcus aureus and in the test with Escherichia coli was “inactive” throughout. Also, the Activity in [1] is 35.4%; in [2] it was 39.5%; in test [3] it was 36.4%; in test [4] it was 45.4%.
Turning to `Fc1ccc(/C=C/c2ccc(F)cc2)cc1`, the “inhibition zone (IZ)” value in the test on Aspergillus niger and in the test on Escherichia coli was “inactive” throughout. The “inhibition zone (IZ)” value in the test on Penicillium chrysogenum is “Active”. In addition, the “inhibition zone (IZ)” value with Staphylococcus aureus came to 24 mm. For the same molecule, the Activity was found to be 35.2% in test [1], 44.9% in test [2], 37.4% in test [3] and 53.8% in test [4].
On to `Clc1cccc(/C=C/c2ccc(Cl)cc2Cl)c1`, for which the “inhibition zone (IZ)” value with Aspergillus niger and with Escherichia coli was “inactive” throughout. In the test on Penicillium chrysogenum, the “inhibition zone (IZ)” value was “Active”. In the test on Staphylococcus aureus, the “inhibition zone (IZ)” value is recorded as 26 mm. Also, the Activity came out at 44.7% in test [1], 56.1% in [2], 49.7% in test [3] and 61.4% in test [4].
